From patent US12723063B2, “GIPR-agonist compounds” (Eli Lilly and Company, priority 2019, dated 2026)
*1 amine or outer side, *2 acyl side, *3 side chain or, on linkers, in order; H or OH if unused. Where a SMILES comes first, the peptide text is derived from it. Side-chain parts run from the residue outwards. [ ]: non-standard residue; d: D form. The star is where a group is joined. C20 diacid = O=C(O)CCCCCCCCCCCCCCCCCCC(=O)*; C18 diacid = O=C(O)CCCCCCCCCCCCCCCCC(=O)*; γGlu = O=C(O)[C@H](CCC(=O)[*:2])N[*:1]; αMeF = C[C@](N)(Cc1ccccc1)C(=O)O; 4Pal = N[C@@H](Cc1ccncc1)C(=O)O; αMeL = CC(C)C[C@](C)(N)C(=O)O; Orn = NCCC[C@H](N)C(=O)O; AEEA = NCCOCCOCC(=O)O; Aib = CC(C)(N)C(=O)O

Experiments:
human GIPR = target: T1, human GIPR (Homo sapiens, UniProt P48546); assay: [125I]-GIP binding, SPA with WGA beads, 0.1% bacitracin; conditions: geometric mean, read-out: hGIPR Ki
T1 construct: expressed in transfected cells; crude membranes
T1 sequence (P48546 22-466): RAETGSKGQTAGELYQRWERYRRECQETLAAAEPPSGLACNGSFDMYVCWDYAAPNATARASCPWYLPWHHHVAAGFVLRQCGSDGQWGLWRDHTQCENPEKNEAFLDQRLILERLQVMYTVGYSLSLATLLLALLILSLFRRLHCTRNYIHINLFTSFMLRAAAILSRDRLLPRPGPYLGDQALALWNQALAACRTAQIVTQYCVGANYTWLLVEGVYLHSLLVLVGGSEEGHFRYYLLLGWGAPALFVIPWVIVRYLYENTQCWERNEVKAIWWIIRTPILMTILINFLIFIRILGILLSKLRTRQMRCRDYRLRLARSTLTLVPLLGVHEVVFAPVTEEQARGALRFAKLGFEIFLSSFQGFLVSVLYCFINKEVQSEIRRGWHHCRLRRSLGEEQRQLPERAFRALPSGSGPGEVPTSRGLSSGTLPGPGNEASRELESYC
In short: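 Ki values are geometric means (SEM, n independent days), derived from four-parameter nonlinear regression of IC50. Membranes came from hGIPR-expressing CHO cells.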

[1] = target: T2, human glucose-dependent insulinotropic peptide receptor (GIPR) (Homo sapiens, UniProt P48546); assay: cAMP functional assay (HTRF) in HEK293 cells in presence of 0.1% casein; type: cell-based; conditions: HEK293 cells expressing human GIPR, geometric mean, read-out: hGIPR cAMP Rel EC50 nM (SEM, n)
T2 construct: expressed in transfected cells; host or cells: HEK293
T2 sequence (P48546 22-466): T1 sequence (P48546 22-466)

| SMILES | Ki (human GIPR) [nM] | EC50 [1] [nM] |
| --- | --- | --- |
| CC[C@H](C)[C@H](NC(=O)[C@H](CO)NC(=O)[C@H](Cc1ccc(O)cc1)NC(=O)[C@H](CC(=O)O)NC(=O)[C@H](CO)NC(=O)[C@@H](NC(=O)[C@H](Cc1ccccc1)NC(=O)[C@@H](NC(=O)CNC(=O)[C@H](CCC(=O)O)NC(=O)[C@@H](C)NC(=O)[C@@H](N)Cc1ccc(O)cc1)[C@@H](C)O)[C@@H](C)CC)C(=O)N[C@@H](CC(C)C)C(=O)N[C@@H](CC(C)C)C(=O)N[C@@H](CC(=O)O)C(=O)N[C@@H](CCCCN)C(=O)N[C@@H](CCCCNC(=O)COCCOCCNC(=O)COCCOCCNC(=O)CC[C@H](NC(=O)CCCCCCCCCCCCCCCCCCC(=O)O)C(=O)O)C(=O)N[C@@H](C)C(=O)N[C@@H](CCC(N)=O)C(=O)N[C@@H](CCC(N)=O)C(=O)N[C@@H](CC(=O)O)C(=O)N[C@@H](Cc1ccccc1)C(=O)N[C@H](C(=O)N[C@@H](CC(N)=O)C(=O)N[C@@H](Cc1c[nH]c2ccccc12)C(=O)N[C@@H](CC(C)C)C(=O)N[C@@H](CC(C)C)C(=O)N[C@@H](C)C(=O)NCC(=O)NCC(=O)N1CCC[C@H]1C(=O)N[C@@H](CO)C(=O)N[C@@H](CO)C(=O)NCC(=O)N[C@@H](C)C(=O)N1CCC[C@H]1C(=O)N1CCC[C@H]1C(=O)N1CCC[C@H]1C(=O)N[C@@H](CO)C(N)=O)C(C)C [Example 12] (H-Y[dA]EGTFISDYSILLDKK([AEEA-AEEA-γGlu-C20 diacid])AQQDFVNWLLAGGPSSGAPPPS-NH2) | 0.0876 | 0.0911 |
| CC[C@H](C)[C@H](NC(=O)[C@H](CO)NC(=O)[C@H](Cc1ccc(O)cc1)NC(=O)[C@H](CC(=O)O)NC(=O)[C@H](CO)NC(=O)[C@@H](NC(=O)[C@H](Cc1ccccc1)NC(=O)[C@@H](NC(=O)CNC(=O)[C@H](CCC(=O)O)NC(=O)[C@@H](C)NC(=O)[C@@H](N)Cc1ccc(O)cc1)[C@@H](C)O)[C@@H](C)CC)C(=O)N[C@@H](CC(C)C)C(=O)N[C@@H](CC(C)C)C(=O)N[C@@H](CC(=O)O)C(=O)N[C@@H](CCCCN)C(=O)N[C@@H](CCCCNC(=O)COCCOCCNC(=O)COCCOCCNC(=O)CC[C@H](NC(=O)CCCCCCCCCCCCCCCCC(=O)O)C(=O)O)C(=O)N[C@@H](C)C(=O)N[C@@H](CCC(N)=O)C(=O)NC(C)(C)C(=O)N[C@@H](CCC(=O)O)C(=O)N[C@@H](Cc1ccccc1)C(=O)N[C@H](C(=O)N[C@@H](CC(N)=O)C(=O)N[C@@H](Cc1c[nH]c2ccccc12)C(=O)N[C@@H](CC(C)C)C(=O)N[C@@H](CC(C)C)C(=O)N[C@@H](CCC(=O)O)C(=O)NCC(=O)NCC(=O)N1CCC[C@H]1C(=O)N[C@@H](CO)C(=O)N[C@@H](CO)C(=O)NCC(=O)N[C@@H](C)C(=O)N1CCC[C@H]1C(=O)N1CCC[C@H]1C(=O)N1CCC[C@H]1C(=O)N[C@@H](CO)C(N)=O)C(C)C [Example 28] (H-Y[dA]EGTFISDYSILLDKK([AEEA-AEEA-γGlu-C18 diacid])AQ[Aib]EFVNWLLEGGPSSGAPPPS-NH2) | 0.0732 | 0.0118 |
| CC[C@H](C)[C@H](NC(=O)[C@H](Cc1ccccc1)NC(=O)[C@@H](NC(=O)CNC(=O)[C@H](CCC(=O)O)NC(=O)C(C)(C)NC(=O)[C@@H](N)Cc1ccc(O)cc1)[C@@H](C)O)C(=O)N[C@@H](CO)C(=O)N[C@@H](CC(=O)O)C(=O)N[C@@H](Cc1ccc(O)cc1)C(=O)N[C@@H](CO)C(=O)N[C@H](C(=O)NC(C)(C)C(=O)N[C@@H](CC(C)C)C(=O)N[C@@H](CC(=O)O)C(=O)N[C@@H](CCCCN)C(=O)N[C@@H](CCCCNC(=O)COCCOCCNC(=O)COCCOCCNC(=O)CC[C@H](NC(=O)CCCCCCCCCCCCCCCCC(=O)O)C(=O)O)C(=O)N[C@@H](Cc1c[nH]cn1)C(=O)N[C@@H](CCC(N)=O)C(=O)NC(C)(C)C(=O)N[C@@H](CC(=O)O)C(=O)N[C@@H](Cc1ccccc1)C(=O)N[C@H](C(=O)N[C@@H](CCC(=O)O)C(=O)N[C@@H](Cc1ccncc1)C(=O)N[C@@H](CC(C)C)C(=O)N[C@@H](CC(C)C)C(=O)N[C@@H](C)C(=O)NCC(=O)NCC(=O)N1CCC[C@H]1C(=O)N[C@@H](CO)C(=O)N[C@@H](CO)C(=O)NCC(=O)N[C@@H](C)C(=O)N1CCC[C@H]1C(=O)N1CCC[C@H]1C(=O)N1CCC[C@H]1C(=O)N[C@@H](CO)C(N)=O)C(C)C)[C@@H](C)CC [Example 24] | 0.254 | 0.0699 |
| CC[C@H](C)[C@H](NC(=O)[C@H](CO)NC(=O)[C@H](Cc1ccc(O)cc1)NC(=O)[C@H](CC(=O)O)NC(=O)[C@H](CO)NC(=O)[C@@H](NC(=O)[C@](C)(Cc1ccccc1)NC(=O)[C@@H](NC(=O)CNC(=O)[C@H](CCC(=O)O)NC(=O)C(C)(C)NC(=O)[C@@H](N)Cc1ccc(O)cc1)[C@@H](C)O)[C@@H](C)CC)C(=O)N[C@@H](C)C(=O)N[C@@H](CC(C)C)C(=O)N[C@@H](CC(=O)O)C(=O)N[C@@H](CCCCN)C(=O)N[C@@H](CCCCNC(=O)COCCOCCNC(=O)COCCOCCNC(=O)CC[C@H](NC(=O)CCCCCCCCCCCCCCCCCCC(=O)O)C(=O)O)C(=O)N[C@@H](Cc1c[nH]cn1)C(=O)N[C@@H](CCC(N)=O)C(=O)NC(C)(C)C(=O)N[C@@H](CCC(=O)O)C(=O)N[C@@H](Cc1ccccc1)C(=O)N[C@H](C(=O)N[C@@H](CC(N)=O)C(=O)N[C@@H](Cc1c[nH]c2ccccc12)C(=O)N[C@@H](CC(C)C)C(=O)N[C@@H](CC(C)C)C(=O)N[C@@H](C)C(=O)NCC(=O)NCC(=O)N1CCC[C@H]1C(=O)N[C@@H](CO)C(=O)N[C@@H](CO)C(=O)NCC(=O)N[C@@H](C)C(=O)N1CCC[C@H]1C(=O)N1CCC[C@H]1C(=O)N1CCC[C@H]1C(=O)N[C@@H](CO)C(N)=O)C(C)C [Example 25] (H-Y[Aib]EGT[αMeF]ISDYSIALDKK([AEEA-AEEA-γGlu-C20 diacid])HQ[Aib]EFVNWLLAGGPSSGAPPPS-NH2) | 0.0417 | 0.0155 |
| CC[C@H](C)[C@H](NC(=O)[C@H](Cc1ccccc1)NC(=O)[C@@H](NC(=O)CNC(=O)[C@H](CCC(=O)O)NC(=O)C(C)(C)NC(=O)[C@@H](N)Cc1ccc(O)cc1)[C@@H](C)O)C(=O)N[C@@H](CO)C(=O)N[C@@H](CC(=O)O)C(=O)N[C@@H](Cc1ccc(O)cc1)C(=O)N[C@@H](CO)C(=O)N[C@H](C(=O)N[C@@](C)(CC(C)C)C(=O)N[C@@H](CC(C)C)C(=O)N[C@@H](CC(=O)O)C(=O)N[C@@H](CCCN)C(=O)N[C@@H](CCCCNC(=O)COCCOCCNC(=O)COCCOCCNC(=O)CC[C@H](NC(=O)CCCCCCCCCCCCCCCCC(=O)O)C(=O)O)C(=O)N[C@@H](Cc1c[nH]cn1)C(=O)N[C@@H](CCC(N)=O)C(=O)NC(C)(C)C(=O)N[C@@H](CC(=O)O)C(=O)N[C@@H](Cc1ccccc1)C(=O)N[C@H](C(=O)N[C@@H](CCC(=O)O)C(=O)N[C@@H](Cc1ccncc1)C(=O)N[C@@H](CC(C)C)C(=O)N[C@@H](CC(C)C)C(=O)N[C@@H](CCC(=O)O)C(=O)N[C@@H](C)C(=O)NCC(=O)N1CCC[C@H]1C(=O)N[C@@H](CO)C(=O)N[C@@H](CO)C(=O)NCC(=O)N[C@@H](C)C(=O)N1CCC[C@H]1C(=O)N1CCC[C@H]1C(=O)N1CCC[C@H]1C(=O)N[C@@H](CO)C(N)=O)C(C)C)[C@@H](C)CC [Example 87] (H-Y[Aib]EGTFISDYSI[αMeL]LD[Orn]K([AEEA-AEEA-γGlu-C18 diacid])HQ[Aib]DFVE[4Pal]LLEAGPSSGAPPPS-NH2) | 0.0538 | 0.0107 |
| CC[C@H](C)[C@H](NC(=O)[C@H](CCCN)NC(=O)[C@H](CC(=O)O)NC(=O)[C@H](CC(C)C)NC(=O)[C@](C)(CC(C)C)NC(=O)[C@@H](NC(=O)[C@H](CO)NC(=O)[C@H](Cc1ccc(O)cc1)NC(=O)[C@H](CC(=O)O)NC(=O)[C@H](CO)NC(=O)[C@@H](NC(=O)[C@H](Cc1ccccc1)NC(=O)[C@@H](NC(=O)CNC(=O)[C@H](CCC(=O)O)NC(=O)C(C)(C)NC(=O)[C@@H](N)Cc1ccc(O)cc1)[C@@H](C)O)[C@@H](C)CC)[C@@H](C)CC)C(=O)N[C@@H](Cc1c[nH]cn1)C(=O)N[C@@H](CCC(N)=O)C(=O)NC(C)(C)C(=O)N[C@@H](CCC(=O)O)C(=O)N[C@@H](Cc1ccccc1)C(=O)N[C@H](C(=O)N[C@@H](CCC(=O)O)C(=O)N[C@@H](Cc1ccc(O)cc1)C(=O)N[C@@H](CCCCNC(=O)COCCOCCNC(=O)COCCOCCNC(=O)CC[C@H](NC(=O)CCCCCCCCCCCCCCCCCCC(=O)O)C(=O)O)C(=O)N[C@@H](CC(C)C)C(=O)N[C@@H](CCC(=O)O)C(=O)NCC(=O)NCC(=O)N1CCC[C@H]1C(=O)N[C@@H](CO)C(=O)N[C@@H](CO)C(=O)NCC(=O)N[C@@H](C)C(=O)N1CCC[C@H]1C(=O)N1CCC[C@H]1C(=O)N1CCC[C@H]1C(=O)N[C@@H](CO)C(N)=O)C(C)C [Example 107] (H-Y[Aib]EGTFISDYSI[αMeL]LD[Orn]IHQ[Aib]EFVEYK([AEEA-AEEA-γGlu-C20 diacid])LEGGPSSGAPPPS-NH2) | 0.0722 | 0.0199 |
